Assay results published in PubChem BioAssay (NCI).
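Cells were grown in 96-well plates and exposed to each compound for 48 hours at five concentrations; endpoints were interpolated linearly between bracketing concentrations, or set to the highest concentration if not reached. TGI is the concentration that stops growth completely.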

Columns and labels:
Experiment in all cases: DTP human tumour cell line panel, 48 h
[1] = test system: 786-0 renal
[2] = test system: A498 renal
[3] = test system: A549 NSCLC
[4] = test system: ACHN renal
[5] = test system: BT-549 breast
[6] = test system: CAKI-1 renal
[7] = test system: CCRF-CEM leukemia
[8] = test system: COLO 205 colon
[9] = test system: DU-145 prostate
[10] = test system: EKVX NSCLC
[11] = test system: HCC-2998 colon
[12] = test system: HCT-116 colon
[13] = test system: HCT-15 colon
[14] = test system: HL-60(TB) leukemia
[15] = test system: HOP-62 NSCLC
[16] = test system: HOP-92 NSCLC
[17] = test system: HS 578T breast
[18] = test system: HT29 colon
[19] = test system: IGROV1 ovarian
[20] = test system: K-562 leukemia
[21] = test system: LOX IMVI melanoma
[22] = test system: M14 melanoma
[23] = test system: MALME-3M melanoma
[24] = test system: MCF7 breast
[25] = test system: MDA-MB-231 breast
[26] = test system: MDA-MB-435
[27] = test system: MDA-N
[28] = test system: MOLT-4 leukemia
[29] = test system: NCI-H23 lung
[30] = test system: NCI-H460 lung
[31] = test system: NCI-H522 lung
[32] = test system: NCI/ADR-RES ovarian
[33] = test system: OVCAR-3 ovarian
[34] = test system: OVCAR-5 ovarian
[35] = test system: OVCAR-8 ovarian
[36] = test system: PC-3 prostate
[37] = test system: RPMI-8226 leukemia
[38] = test system: RXF 393 renal
[39] = test system: SF-268 CNS
[40] = test system: SF-295 CNS
[41] = test system: SF-539 CNS
[42] = test system: SK-MEL-28 melanoma
[43] = test system: SK-MEL-5 melanoma
[44] = test system: SN12C renal
[45] = test system: SNB-19 CNS
[46] = test system: SNB-75 CNS
[47] = test system: SR leukemia
[48] = test system: SW-620 colon
[49] = test system: T-47D breast
[50] = test system: TK-10 renal
[51] = test system: UACC-257 melanoma
[52] = test system: UACC-62 melanoma
[53] = test system: KM12 colon
[54] = test system: NCI-H226 lung
[55] = test system: OVCAR-4 ovarian
[56] = test system: SK-MEL-2 melanoma
[57] = test system: SK-OV-3 ovarian
[58] = test system: U251 CNS
[59] = test system: UO-31 renal

O=c1[nH]c2ccc(C(F)(F)F)cc2nc1-c1ccccc1
TGI [1]: > 100 µM
TGI [2]: > 100 µM
TGI [3]: > 100 µM
TGI [4]: > 100 µM
TGI [5]: > 100 µM
TGI [6]: > 100 µM
TGI [7]: > 100 µM
TGI [8]: > 100 µM
TGI [9]: > 100 µM
TGI [10]: > 100 µM
TGI [11]: > 100 µM
TGI [12]: > 100 µM
TGI [13]: > 100 µM
TGI [14]: > 100 µM
TGI [15]: > 100 µM
TGI [16]: > 100 µM
TGI [17]: > 100 µM
TGI [18]: > 100 µM
TGI [19]: > 100 µM
TGI [20]: > 100 µM
TGI [21]: > 100 µM
TGI [22]: > 100 µM
TGI [23]: > 100 µM
TGI [24]: > 100 µM
TGI [25]: > 100 µM
TGI [26]: > 100 µM
TGI [27]: > 100 µM
TGI [28]: > 100 µM
TGI [29]: > 100 µM
TGI [30]: > 100 µM
TGI [31]: > 100 µM
TGI [32]: > 100 µM
TGI [33]: > 100 µM
TGI [34]: > 100 µM
TGI [35]: > 100 µM
TGI [36]: > 100 µM
TGI [37]: > 100 µM
TGI [38]: > 100 µM
TGI [39]: > 100 µM
TGI [40]: > 100 µM
TGI [41]: > 100 µM
TGI [42]: > 100 µM
TGI [43]: > 100 µM
TGI [44]: > 100 µM
TGI [45]: > 100 µM
TGI [46]: > 100 µM
TGI [47]: > 100 µM
TGI [48]: > 100 µM
TGI [49]: > 100 µM
TGI [50]: > 100 µM
TGI [51]: > 100 µM
TGI [52]: > 100 µM

CCCC1NC(=O)C(CC(C)C)NC(=O)c2cccc(n2)C(=O)NC(CC(C)C)C(=O)NC(CCC)C(=O)NC(C(=O)OC)CCCCNC1=O (stereo not drawn)
TGI [1]: > 100 µM
TGI [2]: > 100 µM
TGI [3]: > 100 µM
TGI [5]: 76 µM
TGI [6]: > 100 µM
TGI [7]: 36.6 µM
TGI [8]: > 100 µM
TGI [9]: > 100 µM
TGI [10]: 90.9 µM
TGI [11]: 41.7 µM
TGI [12]: > 100 µM
TGI [13]: > 100 µM
TGI [15]: > 100 µM
TGI [16]: 65.9 µM
TGI [17]: > 100 µM
TGI [18]: 94.5 µM
TGI [19]: > 100 µM
TGI [20]: 53.7 µM
TGI [53]: 59.3 µM
TGI [21]: 44.4 µM
TGI [22]: > 100 µM
TGI [23]: 62.8 µM
TGI [24]: > 100 µM
TGI [25]: 48.9 µM
TGI [26]: > 100 µM
TGI [27]: > 100 µM
TGI [28]: 44.8 µM
TGI [54]: 71.4 µM
TGI [29]: > 100 µM
TGI [30]: > 100 µM
TGI [32]: > 100 µM
TGI [33]: > 100 µM
TGI [55]: > 100 µM
TGI [34]: > 100 µM
TGI [35]: > 100 µM
TGI [36]: 91.3 µM
TGI [37]: 32 µM
TGI [38]: > 100 µM
TGI [39]: > 100 µM
TGI [40]: > 100 µM
TGI [41]: 45.1 µM
TGI [56]: > 100 µM
TGI [42]: 78.9 µM
TGI [43]: > 100 µM
TGI [57]: 91.5 µM
TGI [44]: > 100 µM
TGI [45]: > 100 µM
TGI [46]: 57.7 µM
TGI [47]: 65.6 µM
TGI [48]: > 100 µM
TGI [49]: > 100 µM
TGI [50]: > 100 µM
TGI [58]: > 100 µM
TGI [51]: > 100 µM
TGI [52]: 51.5 µM
TGI [59]: > 100 µM
